In US20230165868A1, “PARAXANTHINE-BASED COMPOSITIONS FOR ENHANCING MUSCLE FUNCTION, NITRIC OXIDE SIGNALING, AND/OR MUSCLE GLYCOGEN LEVELS” (Ingenious Ingredients, LP, priority 2021, published 2023):

Tests used:
male Swiss Albino mice [1] = assay: Forelimb grip strength test; type: in vivo; conditions: for Baseline forelimb grip strength: day 0 baseline, time holding steel bar, mean of three trials; for increase in forelimb grip strength compared to control: day 28, one hour after oral treatment, vs vehicle control
Procedure: After one week of acclimation, the animals were randomly divided by body weight into five groups (n=8 per group in each test) for oral treatment once a day, at approximately same time each day (±1 hour), for 28 consecutive days: (1) vehicle control; (2) paraxanthine (3) L-theanine; […] The dose administered to the mice was calculated using US Food and Drug Administration for human equivalence doses (HED), assuming a human weight of 60 kg. […] Dosing was conducted via oral gavage using disposable polypropylene syringes with sterilized stainless steel gavage tubes. The food intake and water consumption were monitored daily, and BW was recorded weekly. The last dose on day 28 was given 1 hour prior to testing. The forelimb grip strength was measured on day 0 and day 28 by using a stainless-steel grill to assess muscle strength (Orchid Scientific & Innovative India Pvt Ltd, India). Grip strength was measured one hour after treatment. Briefly, each mouse was placed on a grill chamber and the steel bar is inverted; grip strength is measured by recording the time each animal holds the steel bar. The maximum time for each trial was six minutes. Each animal performed three independent trials separated by six minutes intervals and the mean of the three trials was calculated.

male Swiss Albino mice [2] = assay: Muscle weight (gastrocnemius, soleus) after 28 days; type: in vivo; conditions: after 28 days of supplementation; vs vehicle control
Procedure: (§1) (2) paraxanthine (3) L-theanine; […] The dose administered to the mice was calculated using US Food and Drug Administration for human equivalence doses (HED), assuming a human weight of 60 kg. […] Dosing was conducted via oral gavage using disposable polypropylene syringes with sterilized stainless steel gavage tubes. The food intake and water consumption were monitored daily, and BW was recorded weekly. The last dose on day 28 was given 1 hour prior to testing. All animals were euthanized by 95% CO2 after 28 days of following their assigned treatment. Blood was collected immediately after euthanization by the retro-orbital route and was immediately centrifuged at 1500×g for 10 min at 4° C. before having all serum transferred into cryogenic tubes and stored at -80° C. The liver, heart, gastrocnemius and soleus were excised and weighed.

[3] = Clinical biochemical profiles of serum; type: in vivo, Swiss Albino mice; conditions: serum at end of 28-day treatment; mean ± SD, n = 8
Procedure: (§2) After one week of acclimation, the animals were randomly divided by body weight into five groups (n=8 per group in each test) for oral treatment once a day, at approximately same time each day (±1 hour), for 28 consecutive days: (1) vehicle control; (2) paraxanthine (3) L-theanine; […] The dose administered to the mice was calculated using US Food and Drug Administration for human equivalence doses (HED), assuming a human weight of 60 kg. […] Dosing was conducted via oral gavage using disposable polypropylene syringes with sterilized stainless steel gavage tubes. The food intake and water consumption were monitored daily, and BW was recorded weekly. The last dose on day 28 was given 1 hour prior to testing. All animals were euthanized by 95% CO2 after 28 days of following their assigned treatment. Blood was collected immediately after euthanization by the retro-orbital route and was immediately centrifuged at 1500×g for 10 min at 4° C. before having all serum transferred into cryogenic tubes and stored at -80° C. The liver, heart, gastrocnemius and soleus were excised and weighed. Collected serum was analyzed for clinical biochemical variables including aspartate aminotransaminase (AST), alanine aminotransaminase (ALT), alkaline phosphatase (ALP), uric acid (UA), creatinine, total cholesterol (TC), triglycerides (TG), high-density lipoproteins (HDL), and low-density lipoproteins (LDL) were measured using an auto analyzer (EM360, ERBA Diagnostics Mannheim GmbH, Mannheim, Germany). Nitric oxide was analyzed using standard ELISA assay kits (Lot No: E-BC-[…], Elabscience, Houston, Tex., USA).

[4] = Body weight during 28-day oral supplementation; type: in vivo, Swiss Albino mice; conditions: mean ± SD, n = 8 mice
Procedure: (§3) Forty 8-week-old male Swiss Albino mice were housed in an animal room at a constant temperature (22±3° C.) and humidity (30%-70%) under a 12:12 h light-dark cycle with standard laboratory diet (Purina 5L79, Rat and Mouse 18% protein; PMI Nutrition International, Brentwood, Mo., USA). Distilled water was provided ad libitum. All animal experiments were reviewed and approved by the Institutional Animal Ethical Committee (IAEC) of Radiant Research Services Pvt. Ltd (Bangalore, India). All research was conducted in accordance with the guidelines of the committee for the purpose of control and supervision of experiments on animals (CPCSEA Registration Number-1803/PO/RcBi/S/2015/CPCSEA).
(§4) After one week of acclimation, the animals were randomly divided by body weight into five groups (n=8 per group in each test) for oral treatment once a day, at approximately same time each day (±1 hour), for 28 consecutive days: (1) vehicle control; (2) paraxanthine (3) L-theanine; (4) alpha-GPC; and (5) taurine. The dose administered to the mice was calculated using US Food and Drug Administration for human equivalence doses (HED), assuming a human weight of 60 kg. The following HED were used in this study: 100 mg paraxanthine, (ENFINITY™, Ingenious Ingredients, L.P Lewisville, Tex., USA; mouse dose: 20.5 mg/kg bw/day); 200 mg alpha-GPC mg (YangLing Daily Health Bio-Engineering Technology Co., Ltd; mouse dose: 41.09 mg/kg bw), 50 mg L-theanine (Hangzhou Qinyuan Natural Plant High-tech Co., Ltd; mouse dose: 10.28 mg/kg bw), and 500 mg taurine (Jiangyin Huachang Food Additive Co., Ltd; mouse dose: 102.75 mg/kg bw). 0.5% Carboxy Methyl Cellulose sodium was used as vehicle and the test item formulations were prepared daily. Dosing was conducted via oral gavage using disposable polypropylene syringes with sterilized stainless steel gavage tubes. The food intake and water consumption were monitored daily, and BW was recorded weekly. The last dose on day 28 was given 1 hour prior to testing.

male Swiss Albino mice [5] = assay: Treadmill endurance test; type: in vivo; conditions: for Distance traveled on treadmill / increase in distance traveled during treadmill exercise compared to control: after 28 days of supplementation; for Distance traveled on treadmill: run until exhaustion, n=8; for Distance traveled on treadmill / Baseline treadmill performance (distance): mean ± SD; for increase in distance traveled during treadmill exercise compared to control: vs vehicle control
Procedure: (2) paraxanthine (3) L-theanine; […] The dose administered to the mice was calculated using US Food and Drug Administration for human equivalence doses (HED), assuming a human weight of 60 kg. […] Dosing was conducted via oral gavage using disposable polypropylene syringes with sterilized stainless steel gavage tubes. The food intake and water consumption were monitored daily, and BW was recorded weekly. The last dose on day 28 was given 1 hour prior to testing. […] All animals were adapted to this procedure daily 60 minutes after dosing for five days in a week during the treatment period. On 28th day of each respective treatment, all animals were subjected to a muscle endurance test. […] Animals were subjected to the treadmill test until exhaustion. Distance traveled (cm) was measured as a marker of exercise performance.

Nitric oxide = assay: Serum nitric oxide ELISA; type: in vivo, Swiss Albino mice; conditions: serum after 28 days of treatment; for Nitric Oxide: mean ± SD, n = 8; for increase in nitric oxide levels over control: vs vehicle control
Procedure: as §2

[6] = Liver and heart mass / gross pathology; type: in vivo, Swiss Albino mice; conditions: after 28 days of treatment; mean ± SD, n = 8
Procedure: as §1

[7] = Feed consumption during 28-day oral supplementation; type: in vivo, Swiss Albino mice; conditions: mean ± SD, n = 8 mice
Procedure: as §3, §4

Row | Structure (SMILES) | Baseline forelimb grip strength (male Swiss Albino mice [1]) | increase in forelimb grip strength compared to control (male Swiss Albino mice [1]) [%] | increase in gastrocnemius muscle mass compared to control (male Swiss Albino mice [2]) | increase in soleus muscle mass compared to control (male Swiss Albino mice [2]) | ALP [3] [U/L] | ALT [3] [U/L] | AST [3] [U/L] | Creatinine [3] [mg/dL] | Urea [3] [mg/dL] | body weight ([4]; Basal) [grams] | body weight ([4]; Week 1, oral once daily) [grams] | body weight ([4]; Week 2, oral once daily) [grams] | body weight ([4]; Week 3, oral once daily) [grams] | body weight ([4]; Week 4, oral once daily) [grams] | Distance traveled on treadmill (male Swiss Albino mice [5]) | increase in distance traveled during treadmill exercise compared to control (male Swiss Albino mice [5]) | Baseline treadmill performance (distance) (male Swiss Albino mice [5]) [cm] | Nitric Oxide (Nitric oxide) [ng/mL] | increase in nitric oxide levels over control (Nitric oxide) [%] | Heart mass [6] [mg] | also measured
1 | C[N+](C)(C)CCOP(=O)([O-])OC[C@H](O)CO [Alpha-GPC, L-alpha glycerylphosphorylcholine] | 91.00±0.40 | 8 | no effect on muscle mass | no effect on muscle mass | 179.3 ± 3.99 | 23.63 ± 1.51 | 38.88 ± 2.10 | 0.90 ± 0.16 | 29.38 ± 1.41 | 22.50 ± 0.44 | 24.10 ± 0.40 | 27.05 ± 0.50 | 29.14 ± 0.49 | 31.68 ± 0.44 | 1,695±53.0 centimeters | did not increase treadmill performance | 248.6±42.2 | 9.21 ± 2.33 | 42 | 189 ± 1.0 | Liver mass [6]: 1,869 ± 32 mg; feed consumption ([7]; Week 1): 40.91 ± 0.55 grams; feed consumption ([7]; Week 2): 43.34 ± 0.40 grams; feed consumption ([7]; Week 3): 45.49 ± 0.40 grams; feed consumption ([7]; Week 4): 47.54 ± 0.42 grams
2 | CCNC(=O)CC[C@H](N)C(=O)O [L-Theanine, L-theanine] | 87.90±2.63 | 12 | 5% | but not soleus muscle mass | 177.1 ± 3.68 | 24.25 ± 1.28 | 40.25 ± 2.44 | 0.89 ± 0.11 | 28.75 ± 1.28 | 22.41 ± 0.49 | 24.20 ± 0.56 | 26.76 ± 0.71 | 29.00 ± 0.60 | 31.60 ± 0.64 | 1,710±127 centimeters | 13% | 265.4±32.9 | 10.23 ± 1.26 | 57 | 189 ± 2.3 | Liver mass [6]: 1,866 ± 43 mg; feed consumption ([7]; Week 1): 41.26 ± 0.86 grams; feed consumption ([7]; Week 2): 43.50 ± 0.66 grams; feed consumption ([7]; Week 3): 45.30 ± 0.48 grams; feed consumption ([7]; Week 4): 47.60 ± 0.51 grams
3 | Cn1c(=O)[nH]c2ncn(C)c2c1=O [Paraxanthine, 1,7-dimethylxanthine] | 90.60±0.92 | 17 | 14% | 41% | 179.4 ± 2.56 | 23.88 ± 0.99 | 39.50 ± 1.60 | 0.86 ± 0.11 | 29.13 ± 0.99 | 22.01 ± 0.40 | 23.86 ± 0.55 | 26.95 ± 0.41 | 29.68 ± 0.45 | 32.80 ± 0.48 | 2,100±133 centimeters | 39% | 255.3±30.7 | 13.06 ± 0.58 | 101 | 190 ± 1.4 | Liver mass [6]: 1,870 ± 31 mg; feed consumption ([7]; Week 1): 41.73 ± 046 grams; feed consumption ([7]; Week 2): 43.89 ± 0.68 grams; feed consumption ([7]; Week 3): 46.00 ± 0.59 grams; feed consumption ([7]; Week 4): 48.34 ± 0.68 grams
